Data set [1] can be described thus: stability studies: HPLC purity after storage at 40° C./75% relative humidity. The class given is physicochemical.
For data set [2] the following is noted: pH 7; cited from earlier work.
The conditions of data set [3]: cited from earlier work.
The mark [4] stands for this setting: after 1 week at 40° C./75% R.H.

≈ marks a conversion by molar mass, not a printed value. Entries after “also recorded” stand apart in the source; their conditions may differ. Read-outs that look alike come from different tables or passages of the source.

Here are results for three molecules from patent publication US7935817B2, “Salt form and cocrystals of adefovir dipivoxil and processes for preparation thereof” (Apotex Pharmachem Inc., priority 2008, dated 2011).

What is called aqueous solubility is the dissolved amount per volume that the medium holds.

On to `CC(C)(C)C(=O)OCOP(=O)(COCCn1cnc2c(N)ncnc21)OCOC(=O)C(C)(C)C.NC(=O)c1cccnc1` [ADE:NIC, adefovir dipivoxil:nicotinamide], for which the “decrease of HPLC purity” value in data set [1] (setting [4]) is listed as “no decrease; also recorded: unchanged”; in data set [1] (after 4 weeks at 40° C./75% R.H.), 0.06%.

As to `CC(C)(C)C(=O)OCOP(=O)(COCCn1cnc2c(N)ncnc21)OCOC(=O)C(C)(C)C` [Adefovir dipivoxil, 9-[2-[[bis[(pivaloyloxy)methoxy]phosphinyl]-methoxy]ethyl]adenine], the “octanol/aqueous phosphate buffer partition coefficient (log p)” value in data set [2] is on record as 1.91. In addition, the aqueous solubility in data set [3] (pH 2.0) is 19000 µg/mL (≈ 37.9 mM); in data set [3] (pH 7.2), 400 µg/mL (≈ 0.798 mM).

On to `CC(C)(C)C(=O)OCOP(=O)(COCCn1cnc2c(N)ncnc21)OCOC(=O)C(C)(C)C` [amorphous adefovir dipivoxil, 9-[2-[[bis[(pivaloyloxy)methoxy]phosphinyl]-methoxy]ethyl]adenine], for which the results for the “decrease of HPLC purity” value in data set [1] (setting [4]) and in data set [1] (after 2 weeks at 40° C./75% R.H.) were “more than 1%” and 2%, respectively. In addition, the “decrease of HPLC purity per week” value in data set [1] (storage at 40° C./75% relative humidity, over 2 weeks) is listed as 1 % per week.
